3 molecules from PMC10980815, “Cell surface patching via CXCR4-targeted nanothreads for cancer metastasis inhibition” (Nature Communications, 2024) can be followed below.

Ends that are not written are not given here.

For test [1], the system named is orthotopic 4T1 breast tumors. In words: Spontaneous lung metastasis model: tumor volume and pulmonary metastatic nodules. In kind it is in vivo, female BALB/c mice. The procedure:
For the in vivo investigation of pulmonary metastasis, 4T1 cells (1 × 10^6 cells) were injected into the third mammary fat pad of female BALB/c mice (6–8 weeks). […] Tumor volumes were recorded every other day. On day 28, lungs were harvested and fixed with Bouin’s solutions. The pulmonary metastatic nodules were counted and analyzed by hematoxylin-eosin staining.

Test [2] concerns orthotopic 4T1 breast tumors. In words: Tumor-infiltrating CD8+ T lymphocytes, Tregs and MDSCs (flow cytometry). In kind it is in vivo, female BALB/c mice. The conditions noted are these: for CD3+CD8+ T cells (%) in tumor / CD11b+Gr1+ MDSCs (%) in tumor / Tregs (%) in CD4+ T cells: Supplementary Fig. 16b. The procedure: 4T1 cells (1 × 10^6 cells) were injected into the third mammary fat pad of female BALB/c mice (6–8-week). When tumor volumes reached nearly […] on day 7 after tumor inoculation, mice were randomly divided into 8 groups (n = 8 per group). For four groups without laser irradiation (−), mice were intravenously injected with the following samples: (1) saline on day 7, 14, 21, and 28, (2) P-PS on day 7, 14, 21, and 28, (3) P-BS-PS on day 7, 14, 21, and 28, or (4) P-BS-CM1 on day 7, 14, 21, and 28, followed by P-PS-CM2 on day 8, 15, 22, and 29 (5 mg/kg BS equivalence, CM1:CM2 1:1 mol%, 2.5 mg/kg PS equivalence), respectively. For four groups with laser irradiation (+), mice were treated with the same regimens and irradiated at 650 nm laser (580 mW/cm^2, 5 min) on day 9, 16, 23 and 30. Tumor volumes and mice survivals were recorded every other day. For the investigation of immune response and lung metastasis, 4T1 tumor-bearing female BALB/c mice (6–8-week, tumor volume~100 mm^3) were randomly divided into 8 groups (n = 5 per group) and given three rounds of above treatments. On day 28, lungs and tumors were harvested. lungs were fixed with Bouin’s solution. The pulmonary metastatic nodules were counted and analyzed by hematoxylin-eosin staining. Single-cell suspensions of tumor tissues were stained with anti-CD45-PerCP/Cy5.5 (1:300 dilution) and anti-calreticulin recombinant rabbit monoclonal antibody (1:500 dilution) at 4 °C for 1 h, and then stained with goat anti-rabbit IgG H&L Alexa Fluor® 647 (1:1000 dilution, 4 °C, 45 min), followed by flow cytometry analysis. ATP and HMGB1 concentrations in the supernatant of cell suspension were measured using a luciferase-based ATP assay kit and a mouse HMGB1 ELISA kit, respectively. Single-cell suspensions of tumors were stained with FITC anti-mouse CD3 antibody (1:300 dilution), PerCP/Cyanine5.5 anti-mouse CD4 antibody (1:300 dilution), anti-CD8α-APC (1:300 dilution), and anti-Foxp3-PE (1:300 dilution) for flow cytometry analysis of T cell subtypes (CD8^+ T cells, CD4^+ effector T cells, and Foxp3^+ regulatory T cells), and stained with PE anti-mouse/human CD11b antibody (1:300 dilution) and FITC anti-mouse Ly-6G/Ly-6C (Gr-1) antibody (1:300 dilution) for flow cytometry analysis of MDSCs (CD11b^+Gr1^+). Cytotoxic T cells in tumor tissues were investigated with immunofluorescent staining of IFN-γ and flow cytometry analysis using anti-IFN-γ-PE (1:300 dilution). For CD8-depletion assay, 4T1 tumor-bearing female BALB/c mice (6–8-week, tumor volume~100 mm^3) were randomly divided into 3 groups (n = 8 per group). Mice were intravenously given four doses of P-BS-CM1 on day 7, 14, 21 and 28, combined with P-PS-CM2 on day 8, 15, 22 and 29 (5 mg/kg BS equivalence, CM1:CM2 1:1 mol%, 2.5 mg/kg PS equivalence) in the presence or absence of InvivoMab anti-mouse CD8α (100 μg/mice). Mice were irradiated at 650 nm laser (580 mW/cm^2, 5 min) on day 9, 16, 23 and 30. Tumor volumes and mice survivals were recorded every other day.
Background: In flow cytometry, cells or beads pass a laser one at a time.

In test [3] the target is T1, CXCR7 (Mus musculus, UniProt P56485).
T1 construct: endogenous in cells; host or cells: 4T1 murine breast cancer cells
T1 sequence (P56485 whole entry): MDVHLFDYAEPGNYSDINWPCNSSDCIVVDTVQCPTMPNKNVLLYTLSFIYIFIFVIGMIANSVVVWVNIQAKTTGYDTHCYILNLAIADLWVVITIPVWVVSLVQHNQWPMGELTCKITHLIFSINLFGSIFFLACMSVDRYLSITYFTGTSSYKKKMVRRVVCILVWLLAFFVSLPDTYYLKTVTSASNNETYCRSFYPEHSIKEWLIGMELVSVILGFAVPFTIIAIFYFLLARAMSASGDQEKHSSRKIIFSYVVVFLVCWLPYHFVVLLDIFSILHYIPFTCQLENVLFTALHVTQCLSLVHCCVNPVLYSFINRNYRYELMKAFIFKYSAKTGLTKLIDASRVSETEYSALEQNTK
Briefly: Dose-dependent chemokine receptor occupation assay. The format is binding, 4T1 murine cells. The conditions noted are these: 4T1 cells, 0.1 nM to 1 mM, 1 h. As to the method:
(§1) To validate the specificity of the BS (CXCR4-binding sequence) to CXCR4, a dose-dependent chemokine receptors occupation assay and a chemokine receptors competitive binding assay were conducted. […] Unoccupied chemokine receptors (CXCR4, CXCR7, CXCR2, CXCR5, and CCR4) on cell surface were stained with PE anti-human CD184/CXCR4 Antibody (1:300 dilution), anti-CXCR7-PE (1:300 dilution), anti-CXCR2-PE (1:300 dilution), anti-CXCR5-PE (1:300 dilution), and PE anti-human CD194/CCR4 Antibody (1:300 dilution) at 4 °C for 1 h, prior to flow cytometry analysis. In the chemokine receptors competitive binding assay, 4T1 cells (5 × 10^5 cells) were pre-blocked with PE anti-human CD184/CXCR4 Antibody (1:300 dilution), anti-CXCR7-PE (1:300 dilution), anti-CXCR2-PE (1:300 dilution), anti-CXCR5-PE (1:300 dilution), and PE anti-human CD194/CCR4 Antibody (1:300 dilution) at 4 °C for 1 h. Subsequently, these cells were treated with P-Cy5-BS-CM1-Cy5 (5 nM Cy5 equivalence) for 1 h. Following the treatments, cells were washed three times with PBS and subjected to flow cytometry analysis.

Test [4] deals with T2, CXCR4 (Mus musculus, UniProt P70658).
T2 construct: endogenous in cells; host or cells: 4T1 murine breast cancer cells
T2 sequence (P70658 whole entry): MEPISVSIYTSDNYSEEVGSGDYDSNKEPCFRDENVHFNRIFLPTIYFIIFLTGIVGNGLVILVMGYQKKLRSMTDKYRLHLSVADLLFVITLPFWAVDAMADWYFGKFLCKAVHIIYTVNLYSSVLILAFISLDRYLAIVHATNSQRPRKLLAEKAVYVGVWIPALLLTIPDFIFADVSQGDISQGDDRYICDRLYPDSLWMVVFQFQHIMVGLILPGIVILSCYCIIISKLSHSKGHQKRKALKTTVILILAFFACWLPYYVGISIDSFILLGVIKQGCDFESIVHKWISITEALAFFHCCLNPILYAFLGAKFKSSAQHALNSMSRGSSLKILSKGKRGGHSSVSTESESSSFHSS
Briefly: Dose-dependent chemokine receptor occupation assay. In kind it is binding, 4T1 murine cells. Conditions: 4T1 cells, 0.1 nM to 1 mM, 25 °C, 1 h; unoccupied receptor stained with PE antibody. As to the method:
as §1

The target of test [5] is T3, Cy5-labeled P-BS-CM1 (P-BS-CM1-Cy5) (cysteines embedded within BS joined to maleimides of the HPMA copolymer backbone (thiol-ene click chemistry) | N-terminal cysteine joined to a maleimide of the HPMA copolymer backbone (thiol-ene …)).
T3 construct: copies: 6 + 4
T3 chain 1: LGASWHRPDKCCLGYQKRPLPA
T3 chain 2: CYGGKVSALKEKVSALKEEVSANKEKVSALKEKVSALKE
Briefly: FRET or BRET. Conditions: both partners purified. (In general: Bioluminescence resonance energy transfer reports proximity on the nanometre scale.)

The target of test [6] is T4, Nanothread-1 (P-BS-CM1) (not fully specified; cysteines embedded within BS joined to maleimides of the HPMA copolymer backbone (thiol-ene click chemistry) | N-terminal cysteine joined to a maleimide of the HPMA copolymer …).
T4 construct: source: synthetic peptides grafted on HPMA copolymer (P-Mal), dialysis and lyophilization; copies: 6 + 4
T4 chain 1: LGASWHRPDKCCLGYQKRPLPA
T4 chain 2: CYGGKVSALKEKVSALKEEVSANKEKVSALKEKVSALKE
In words: circular dichroism; P-BS-CM1, P-CM2 and their mixtures (CM1:CM2 3:1, 1:1, 1:3), total polymer 10 mg/mL, 10 mM PBS pH 7.4, 25 °C, 10 min. Conditions: both partners purified. Background: Circular dichroism is widely used to follow secondary structure.

On to `c1cc(CN2CCCNCCNCCCNCC2)ccc1CN1CCCNCCNCCCNCC1` [AMD3100, reference compound], for which the “Number of metastatic nodules” value in test [1] (2mg/kg, replicate 1) is 31; in test [1] (2mg/kg, replicate 2), 32; in test [1] (2mg/kg, replicate 3) it was 20; in test [1] (2mg/kg, replicate 4) it was 20; in test [1] (2mg/kg, replicate 5) it was 18; in test [1] (5mg/kg, replicate 1) it was 12. For the same molecule, the “Number of metastatic nodules” value is 14 in test [1] (5mg/kg, replicate 2); 15 in test [1] (5mg/kg, replicate 3); 9 in test [1] (5mg/kg, replicate 4); 12 in test [1] (5mg/kg, replicate 5). Also, the primary tumor growth result in test [1] (nanothreads weekly i.v. x3, AMD3100 i.p. daily 2 or 5 mg/kg day 7-27) is “dose-dependent anti-tumor activity”. Also, the “CD3+CD8+ T cells (%) in tumor” value in test [2] (2 mg/kg, replicate 1 of 5) is recorded as 0.1606%; in test [2] (2 mg/kg, replicate 2 of 5) it was 0.2296%; in test [2] (2 mg/kg, replicate 3 of 5), 0.134%; in test [2] (2 mg/kg, replicate 4 of 5), 0.1643%; in test [2] (2 mg/kg, replicate 5 of 5) it was 0.1515%; in test [2] (5 mg/kg, replicate 1 of 5) it was 0.2311%. Also, the “CD3+CD8+ T cells (%) in tumor” value was 0.1528% in test [2] (5 mg/kg, replicate 2 of 5); 0.1403% in test [2] (5 mg/kg, replicate 3 of 5); 0.2195% in test [2] (5 mg/kg, replicate 4 of 5); 0.1508% in test [2] (5 mg/kg, replicate 5 of 5). Moreover, the “CD11b+Gr1+ MDSCs (%) in tumor” value in test [2] (2 mg/kg, replicate 1 of 5) was determined as 22.12%; in test [2] (2 mg/kg, replicate 2 of 5), 21.04%; in test [2] (2 mg/kg, replicate 3 of 5), 19.16%; in test [2] (2 mg/kg, replicate 4 of 5) it was 20.68%; in test [2] (2 mg/kg, replicate 5 of 5), 18.7%; in test [2] (5 mg/kg, replicate 1 of 5) it was 16.63%. Moreover, the “CD11b+Gr1+ MDSCs (%) in tumor” value in test [2] (5 mg/kg, replicate 2 of 5) came out at 14.04%; in test [2] (5 mg/kg, replicate 3 of 5), 15.32%; in test [2] (5 mg/kg, replicate 4 of 5) it was 14.1%; in test [2] (5 mg/kg, replicate 5 of 5) it was 16%. Also, the “Tregs (%) in CD4+ T cells” value in test [2] (2 mg/kg, replicate 1 of 5) is on record as 12.05%; in test [2] (2 mg/kg, replicate 2 of 5) it was 13.02%; in test [2] (2 mg/kg, replicate 3 of 5) it was 16.28%; in test [2] (2 mg/kg, replicate 4 of 5) it was 11.04%; in test [2] (2 mg/kg, replicate 5 of 5) it was 18.84%; in test [2] (5 mg/kg, replicate 1 of 5) it was 7.21%. The “Tregs (%) in CD4+ T cells” value is listed as 6.69% in test [2] (5 mg/kg, replicate 2 of 5); 12.48% in test [2] (5 mg/kg, replicate 3 of 5); 10.38% in test [2] (5 mg/kg, replicate 4 of 5); 8.46% in test [2] (5 mg/kg, replicate 5 of 5). The “tumor-infiltrating CD8+ T cells” value in test [2] (day 28, AMD3100 i.p. daily 2 or 5 mg/kg, nanothreads weekly i.v.) is “remained low”. Besides, the CXCR7 occupation entry in test [3] is given as “low affinity”. The CXCR4 occupation entry in test [4] is given as “occupied CXCR4”.

B1: Cy3-labeled P-CM2 (P-CM2-Cy3) (other)
peptide: C(HPMA copolymer)YGGEVSALEKEVSALEKKNSALEKEVSALEKEVSALEK
modifications: also: Cy3 label on conjugate, position not given here
notes: copies: 12
Turning to B1, the binding result in test [5] was “binds”.

B2: HPMA copolymer-CM2 conjugate (P-CM2) (other)
peptide: CYGGEVSALEKEVSALEKKNSALEKEVSALEKEVSALEK
modifications: not fully specified (residue 1)
notes: source: synthetic peptide grafted on HPMA copolymer (P-Mal), dialysis and lyophilization; copies: 12
In the case of B2, the binding result in test [6] is recorded as “binds”.
